Reference: patent US20040171086A1, “Selective modulation of TLR-mediated biological activity” (3M Innovative Properties Company, priority 2003, published 2004)

What was measured:
TLR6 = target: T1, TLR6 (Homo sapiens, UniProt Q9Y2C9); experiment: IFN-α1-luciferase reporter assay in genetically modified Namalwa cells, TLR6; format: cell-based; conditions: 10 μM IRM, 18 hours
T1 construct: expressed in transfected cells; host or cells: Namalwa (ATCC CRL-1432), pCI-TLR6 vector, G418 selected
T1 sequence (Q9Y2C9 32-796): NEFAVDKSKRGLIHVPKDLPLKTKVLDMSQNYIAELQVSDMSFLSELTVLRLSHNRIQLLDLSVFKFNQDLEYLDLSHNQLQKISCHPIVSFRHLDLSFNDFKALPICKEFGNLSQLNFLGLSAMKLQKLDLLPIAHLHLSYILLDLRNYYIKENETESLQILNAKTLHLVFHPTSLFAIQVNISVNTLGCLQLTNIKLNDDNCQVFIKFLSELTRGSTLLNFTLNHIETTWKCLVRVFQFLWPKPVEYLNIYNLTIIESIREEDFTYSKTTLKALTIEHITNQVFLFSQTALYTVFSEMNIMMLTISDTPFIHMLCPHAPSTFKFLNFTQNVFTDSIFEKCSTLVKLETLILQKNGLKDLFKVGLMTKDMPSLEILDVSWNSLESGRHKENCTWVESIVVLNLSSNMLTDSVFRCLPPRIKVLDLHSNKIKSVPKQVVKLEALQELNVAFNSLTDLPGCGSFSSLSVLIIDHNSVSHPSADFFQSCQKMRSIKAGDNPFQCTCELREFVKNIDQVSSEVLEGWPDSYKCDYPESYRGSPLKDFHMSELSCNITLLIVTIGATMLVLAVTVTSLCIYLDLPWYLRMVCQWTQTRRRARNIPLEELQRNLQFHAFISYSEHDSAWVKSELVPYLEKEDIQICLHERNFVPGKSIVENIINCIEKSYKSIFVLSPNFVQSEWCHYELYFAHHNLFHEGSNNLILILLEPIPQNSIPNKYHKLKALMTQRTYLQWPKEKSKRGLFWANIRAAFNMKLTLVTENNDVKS
Experimental: (§1) Results are shown in Table 6 and are expressed as fold induction of IFN-α1 —induced luciferase signal, again with respect to a vehicle control.
(§2) The assay identified TLR6-selective compounds (i.e., compounds that modulate TLR6-mediated activity, but not TLR7-mediated activity), TLR7-selective compounds (compounds that modulate TLR7-mediated activity, but not TLR6-mediated activity), and compounds that modulate cellular activity through both TLR6 and TLR7.
(§3) Unless otherwise indicated, all incubations were performed at 37° C. with 5% CO2 at 98% humidity.
(§4) Culture medium was prepared from complete RPMI 1640 medium (BioSource International, Inc., Camarillo, Calif.). Fetal bovine serum (Atlas Biologicals, Inc., Ft. Collins, Colo.) was added to a final concentration of 7.5% (vol/vol); L-glutamine (BioSource International, Inc.) was added to 5 mM; and sodium pyruvate (BioSource International, Inc.) was added to 1 mM.
Namalwa cells were grown by incubation in culture medium overnight. Cells were harvested by centrifugation in a tabletop centrifuge (1200 RPM for 5 minutes), and then resuspended in phosphate buffered sucrose to a concentration of 1.3×10^7 cells/mL.
For each transfection, a 750 μL aliquot of the cell suspension was placed in an electroporation cuvette with 4 mm gaps. 10 μg of the pIFN-α1-luc vector and 10 μg of the pCI-TLR6 vector were added to the electroporation cuvette. The cell and vector mixtures were incubated at room temperature for 5 minutes. The cells were electroporated using a BioRad Gene Pulser (BioRad Laboratories, Hercules, Calif.) set to at 500 μF capacitance and […], then incubated at room temperature for 5 minutes.
(§5) The electroporated cells were suspended in 10 mLs of culture medium and incubated overnight. Dead cells and debris were removed after 24 hours using a MACS Dead Cell Removal kit (Miltenyi Biotec, Auburn, Calif.). Cells were resuspended in 10 mL of culture medium and incubated for an additional 24 hours.
(§6) Transfected cells were selected by adding G418 (Promega Corp., Madison, Wis.) to a final concentration of 1 mg/mL and incubating the cells for seven days.
(§7) The selected transfected cells were counted and resuspended to a concentration of 1×10^6 cell per mL in culture medium. 100 μl aliquots of cells were placed in the wells of a white-walled, white-bottomed 96-well plate (Corning, Inc., Corning, N.Y.). 1.0 μL of an IRM compound from Table 1 (prepared at 1 mM in 100% DMSO) was added to some cell aliquots so that the final concentration of IRM compound was 10 μM. As a positive control, some cell aliquots were incubated with Sendai virus instead of IRM compound. As a negative control, some cell aliquots were incubated with DMSO without IRM compound. In all cases, the cells were incubated for 18 hours.
(§8) The plates were equilibrated to room temperature before one volume of reconstituted LucLight Plus (Packard Instruments, Meriden, Conn.) was added to each aliquot of cells. Each well of the plate was read on an LJL Analyst (LJL Biosystems, Inc., Sunnyvale, Calif.) set with a 5 minute dark adapt. Results are shown in Table 6 and are expressed as fold increase of the IFN-αl—induced luciferase signal compared to a DMSO control.

TLR7 = target: T2, TLR7 (Homo sapiens, UniProt Q9NYK1); experiment: IFN-α1-luciferase reporter assay in genetically modified Namalwa cells, TLR7; format: cell-based; design: expressed in transfected cells; host or cells: Namalwa (ATCC CRL-1432); conditions: 10 μM IRM, 18 hours
T2 sequence (Q9NYK1 27-1049): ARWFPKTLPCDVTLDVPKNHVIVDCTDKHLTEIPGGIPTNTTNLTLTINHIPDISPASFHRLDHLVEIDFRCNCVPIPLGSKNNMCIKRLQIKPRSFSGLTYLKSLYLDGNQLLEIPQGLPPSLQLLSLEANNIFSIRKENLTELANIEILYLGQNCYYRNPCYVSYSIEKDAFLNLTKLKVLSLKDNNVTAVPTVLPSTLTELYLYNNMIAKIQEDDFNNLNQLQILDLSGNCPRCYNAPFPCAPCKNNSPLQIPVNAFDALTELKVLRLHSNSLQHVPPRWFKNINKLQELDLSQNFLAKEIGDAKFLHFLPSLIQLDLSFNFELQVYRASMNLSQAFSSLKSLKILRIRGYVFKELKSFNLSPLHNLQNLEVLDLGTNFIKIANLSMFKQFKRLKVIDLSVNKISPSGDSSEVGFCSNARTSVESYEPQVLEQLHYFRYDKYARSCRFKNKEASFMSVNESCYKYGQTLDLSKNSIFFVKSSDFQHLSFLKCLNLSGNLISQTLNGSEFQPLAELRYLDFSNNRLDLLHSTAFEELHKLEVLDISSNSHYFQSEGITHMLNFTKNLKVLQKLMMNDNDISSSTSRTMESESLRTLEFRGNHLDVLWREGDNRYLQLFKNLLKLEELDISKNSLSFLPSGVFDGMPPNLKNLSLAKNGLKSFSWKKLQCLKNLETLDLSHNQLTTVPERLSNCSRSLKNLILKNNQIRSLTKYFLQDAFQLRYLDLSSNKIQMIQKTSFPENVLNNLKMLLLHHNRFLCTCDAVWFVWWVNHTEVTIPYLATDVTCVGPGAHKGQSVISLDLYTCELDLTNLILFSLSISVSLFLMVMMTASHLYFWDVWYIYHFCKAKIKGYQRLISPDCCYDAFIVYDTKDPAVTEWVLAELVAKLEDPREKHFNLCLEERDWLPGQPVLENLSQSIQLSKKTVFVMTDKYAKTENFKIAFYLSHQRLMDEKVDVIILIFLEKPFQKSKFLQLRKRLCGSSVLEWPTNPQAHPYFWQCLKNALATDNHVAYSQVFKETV
Experimental: as §1, §2, §3, §4
Namalwa cells were grown by incubation in culture medium overnight. Cells were harvested by centrifugation in a tabletop centrifuge (1200 RPM for 5 minutes), and then resuspended in phosphate buffered sucrose to a concentration of 1.3×10^7 cells/mL. […]
as §5, §6, §7, §8

| Structure (SMILES) | TLR6: fold increase of the IFN-α1-induced luciferase signal compared to a DMSO control (TLR6) [fold increase] | TLR7: fold increase of the IFN-α1-induced luciferase signal compared to a DMSO control (TLR7) [fold increase] |
| --- | --- | --- |
| CCCCc1nc2c(N)nc3cccnc3c2n1CCNC(=O)c1ccc(Br)o1 [IRM23, N^2-[2-(4-amino-2-butyl-1H-imidazo[4,5-c][1,5]naphthyridin-1-yl)ethyl]-5-bromo-2-furamide] | 0.90 | 2.02 |
| Nc1nc2ccccc2c2c1ncn2CCCCNC(=O)c1cccc2ccccc12 [IRM24, N^1-[4-(4-amino-1H-imidazo[4,5-c]quinolin-1-yl)butyl]-1-naphthamide] | 0.00 | 3.38 |
| CN(C)c1cccc(CCCOCCn2cnc3c(N)nc4ccccc4c32)c1 [IRM25, 1-(2-{3-[3-(dimethylamino)phenyl]propoxy}ethyl)-1H-imidazo[4,5-c]quinolin-4-amine] | 0.04 | 2.89 |
| CCOCc1nc2c(N)nc(C)c(C)c2n1CCNS(C)(=O)=O [IRM26, N-{2-[4-amino-2-(ethoxymethyl)-6,7-dimethyl-1H-imidazo[4,5-c]pyridin-1-yl]ethyl}methanesulfonamide] | 1.50 | 2.48 |
| CCCCc1nc2c(N)nc3ccccc3c2s1 [IRM27, 2-butylthiazolo[4,5-c]quinolin-4-amine] | 6.28 | 1.32 |
| Nc1nc2ccccc2c2c1ncn2CCCCNC(=O)c1cnc2ccccc2c1 [IRM28, N^3-[4-(4-amino-1H-imidazo[4,5-c]quinolin-1-yl)butyl]-3-quinolinecarboxamide] | 2.27 | 0.96 |
| Nc1nc2ccccc2c2c1ncn2COCCOc1ccc([N+](=O)[O-])cc1 [IRM29, 1-{[2-(4-nitrophenoxy)ethoxy]methyl}-1H-imidazo[4,5-c]quinolin-4-amine] | 4.57 | 1.32 |
| CCCCc1nc2c(N)nc3ccccc3c2n1CCCCNS(=O)(=O)c1ccc2ccccc2c1 [IRM30, N^2-[4-(4-amino-2-butyl-1H-imidazo[4,5-c]quinolin-1-yl)butyl]-2-naphthalenesulfonamide] | 4.38 | 1.28 |
| Nc1nc2ccccc2c2c1ncn2CCOCc1cc2ccccc2o1 [IRM31, 1-[2-(benzo[b]furan-2-ylmethoxy)ethyl]-1H-imidazo[4,5-c]quinolin-4-amine] | 3.40 | 1.63 |
| CCCCc1nc2c(N)nc3ccccc3c2n1CCCNC(=O)Nc1ccccc1 [IRM32, N-[3-(4-amino-2-butyl-1H-imidazo[4,5-c]quinolin-1-yl)propyl]-N′-phenylurea] | 7.47 | 1.77 |
| Cc1nc(N)c2nc(C)n(CCCCCS(=O)(=O)c3ccccc3)c2c1C [IRM33, 1-(5-benzenesulfonyl-pentyl)-2,6,7-trimethyl-1H-imidazo[4,5-c]pyridin-4-ylamine] | 13.12 | 1.99 |
